# Data as given in PMC10874388, “Cyclic peptides discriminate BCL-2 and its clinical mutants from BCL-XL by engaging a single-residue discrepancy” (Nature Communications, 2024).
# Where “and” joins values, the source holds several entries; their conditions need not be identical. Identical values can stand only once.
# How the values were obtained:
# [1] = biological target: BCL-2 (chimeric human BCL-2); experiment: SPR binding assay, BCL-2; settings: affinity fitting, mean ± SD of three independent experiments, 25 °C
# From the text: The DNA fragments encoding human BCL-XL ([…], with […] removed), BCL-w (residues 6–152), MCL-1 (residues 152–308) and BFL-1 (residues 1–151) as previously reported[18] were cloned into a pET-22b vector (Invitrogen), respectively. A chimeric human BCL-2 (including residues 1–50 and 92–207) was constructed, by removing the internal long loop (residues 51–91) and replacing its residues 35–50 with residues 33–48 of BCL-XL to solubilize the protein[14], and then it was cloned into a pET28a-Sumo vector (Invitrogen). All BCL-2 mutants (G101V, F104L, Y103D, D111A) were generated by mutagenic PCR, according to the QuikChange (Stratagene) protocol.
# SPR assays were performed using a Biacore T200 instrument in running buffer consisting 10 mM PBS, 50 μM EDTA and 0.05% Tween-20 at 25 °C. Biotinylated proteins were immobilized on a CAP sensor chip (Cytiva, 28920234). […] The binding affinities were quantified by the Biacore evaluation software using 1:1 binding model. The reproducibility of the assays was confirmed by performing replicate determinations.
# RS4:11 cells = experiment: Cell viability assay (CellTiter-Glo), RS4:11; format: cell-based; settings: for IC50: 48 h treatment, CellTiter-Glo, small-molecule inhibitors, cells marked (nM); for raw luminescence reading / inhibition rate: RS4:11
# Outline: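 Compounds added in serum-free medium for 4 h (RS4:11: 6 h), then FBS brought to 10% and incubation continued to 24 h or 48 h total at 37 °C, 5% CO2. Viability by CellTiter-Glo 2.0 luminescence; IC50 calculated.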
# Jurkat cells [2] = experiment: Cytochrome C release assay (mitochondrial cytochrome C, Western blot); format: cell-based; settings: 2.5 μM, 12 h
# Method: Jurkat cells at 2 ×10^6 cells/mL were incubated in the presence of DMSO or 50 μM BIP-V5 inhibitor[54] (Yuanye Biotechnology Co., Ltd, 579492-81-2) for 24 h. Two groups of above treated cells were each divided into four groups and incubated in the presence of DMSO, venetoclax at 2.5 μM, cp4-TAT at 20 μM, or cp5-TAT at 15 μM in serum-free RPMI medium for 4 h. Then the medium was supplemented with FBS to 10% and incubated for another 8 h. After being treated by venetoclax or CPs for totally 12 h, cell were processed with the Mitochondrial Separation Kit (Beyotime, C3601) to extract mitochondria. Cytochrome C in mitochondria and BAX proteins in the whole cells were detected by Western blot.
# Cell lysates containing equal amounts of total proteins were denatured, subjected to electrophoresis on SDS-PAGE gels, and transferred onto nitrocellulose membranes. The blots were blocked with 5% skim milk and then incubated at 4 °C overnight with the corresponding primary antibodies against BCL-2 (dilution 1:1000, Abcam, ab194583), BCL-XL (dilution 1:1000, Abcam, ab32370), anti-Flag (dilution 1:1000, Sigma, F1804), cytochrome C (dilution 1:1000, Beyotime, AC909), BAX (dilution 1:1000, Beyotime, AB026), α-Tubulin (dilution 1:3000, Abcam, ab7291), or β-Actin (dilution 1:3000, Abcam, ab8227). […]
# Jurkat cells [3] = experiment: Apoptosis assay, Annexin V-FITC/PI staining and flow cytometry; format: cell-based
# Method: Jurkat cells were seeded to 6-well plates at a density of 4 ×10^5 cells per well. Cells were incubated in the presence of DMSO, venetoclax at 2.5 μM, cp1-TAT at 30 μM, cp2-TAT at 30 μM, or cp3-TAT at 20 μM in serum-free RPMI medium for 4 h. After being incubated totally for 24 h, cells were washed once with PBS and stained with 100 μL binding buffer containing 5 μL Annexin V-FITC and 10 μL PI for 15 min, followed by addition of 400 μL binding buffer to detect cell apoptosis with FCM (BD FACSAria Fusion). Statistical analysis was performed using software FlowJo V10 and GraphPad Prism 7.0.
# BCL-2 G101V = tested on: BCL-2 G101V; design: method as in PMID 31160589; settings: SPR assays; cited from earlier work
smiles,measurement,setting,value
O=C(c1cc(-c2cc3c(cc2C(=O)N2Cc4ccccc4C[C@H]2CN2CCOCC2)OCO3)n2c1CCCC2)N(c1ccccc1)c1ccc(O)cc1 [S55746],Kd,[1],6 ± 2 nM
same,IC50,RS4:11 cells,4.5 ± 0.1 nM
same,raw luminescence reading,"RS4:11 cells; 2.44141 nM, single wells",232300 and 260200 and 275600 and 316000 and 308700 and 306800
same,raw luminescence reading,"RS4:11 cells; 4.88281 nM, single wells",135300 and 123100 and 129200 and 110700 and 132100 and 115900
same,inhibition rate,"RS4:11 cells; 4.88281 nM, single wells, 0.00488281 µM",53% and 57% and 55% and 61% and 54% and 59%
same,raw luminescence reading,"RS4:11 cells; 9.76562 nM, single wells",75370 and 71000 and 72070 and 63170 and 68200 and 61260
same,inhibition rate,"RS4:11 cells; 9.76562 nM, single wells, 0.00976562 µM",74% and 75% and 78% and 76% and 79%
same,raw luminescence reading,"RS4:11 cells; 19.5312 nM, single wells",38320 and 36520 and 36660 and 31950 and 34870 and 31060
same,inhibition rate,"RS4:11 cells; 19.5312 nM, single wells, 0.0195312 µM",87% and 89% and 88%
same,raw luminescence reading,"RS4:11 cells; 39.0625 nM, single wells",14610 and 13790 and 14580 and 12190 and 12650 and 12610
same,inhibition rate,"RS4:11 cells; 39.0625 nM, single wells, 0.0390625 µM",95% and 96%
same,raw luminescence reading,"RS4:11 cells; 78.125 nM, single wells",4289 and 3678 and 4541 and 3543 and 3931 and 3419
same,inhibition rate,"RS4:11 cells; 78.125 nM, single wells, 0.078125 µM",98% and 99%
same,raw luminescence reading,"RS4:11 cells; 156.25 nM, single wells",1268 and 1101 and 1335 and 1644 and 1000 and 916.1
same,inhibition rate,"RS4:11 cells; 156.25 nM, single wells, 0.15625 µM",100% and 99%
same,inhibition rate,"RS4:11 cells; 312.5 nM, single wells",100%
same,raw luminescence reading,"RS4:11 cells; 312.5 nM, single wells",809.8 and 810.5 and 948.9 and 960.0 and 1116 and 1097
same,inhibition rate,"RS4:11 cells; 625 nM, single wells",99%
same,raw luminescence reading,"RS4:11 cells; 625 nM, single wells",1448 and 1571 and 1720 and 1855 and 1831 and 2149
same,inhibition rate,"RS4:11 cells; 1250 nM, single wells",100%
same,raw luminescence reading,"RS4:11 cells; 1250 nM, single wells",256.4 and 322.1 and 360.1 and 295.0 and 378.2 and 348.9
same,inhibition rate,"RS4:11 cells; 2500 nM, single wells",100%
same,raw luminescence reading,"RS4:11 cells; 2500 nM, single wells",334.6 and 379.8 and 329.3 and 445.4 and 358.3 and 346.2
same,inhibition rate,"RS4:11 cells; 5000 nM, single wells",100%
same,inhibition rate,"RS4:11 cells; 10000 nM, single wells",100%
same,raw luminescence reading,"RS4:11 cells; 10000 nM, single wells",297.6 and 210.5 and 312.1 and 264.1 and 325.8 and 327.8
CC1(C)CCC(CN2CCN(c3ccc(C(=O)NS(=O)(=O)c4ccc(NCC5CCOCC5)c([N+](=O)[O-])c4)c(Oc4cnc5[nH]ccc5c4)c3)CC2)=C(c2ccc(Cl)cc2)C1 [venetoclax],Cytochrome C level in mitochondria,Jurkat cells [2],decreased clearly
same,cell apoptosis(%),"Jurkat cells [3]; Figure 6b, replicate values",94.5% and 85.6%
same,Proportion of apoptotic cells,"Jurkat cells [3]; Jurkat, 24 h, 2.5 μM",94.5%
same,Reduction of binding affinity of BCL-2 to venetoclax by G101V,BCL-2 G101V,~ 180 fold
same,inhibition at 0.000390625 µM,"RS4:11 cells; Homo sapiens, RS4-11, RS4:11, 0.390625 nM, single wells, read-out: inhibition rate",27%
same,inhibition at 0.00078125 µM,"RS4:11 cells; Homo sapiens, RS4-11, RS4:11, 0.78125 nM, single wells, read-out: inhibition rate",67%
same,inhibition at 0.0015625 µM,"RS4:11 cells; Homo sapiens, RS4-11, RS4:11, 1.5625 nM, single wells, read-out: inhibition rate",95%
same,inhibition at 0.003125 µM,"RS4:11 cells; Homo sapiens, RS4-11, RS4:11, 3.125 nM, single wells, read-out: inhibition rate",98%
same,inhibition at 0.00625 µM,"RS4:11 cells; Homo sapiens, RS4-11, RS4:11, 6.25 nM, single wells, read-out: inhibition rate",100%
same,inhibition at 0.0125 µM,"RS4:11 cells; Homo sapiens, RS4-11, RS4:11, 12.5 nM, single wells, read-out: inhibition rate",100%
same,inhibition at 0.025 µM,"RS4:11 cells; Homo sapiens, RS4-11, RS4:11, 25 nM, single wells, read-out: inhibition rate",100%
same,inhibition at 0.05 µM,"RS4:11 cells; Homo sapiens, RS4-11, RS4:11, 50 nM, single wells, read-out: inhibition rate",100%
same,inhibition at 0.1 µM,"RS4:11 cells; Homo sapiens, RS4-11, RS4:11, 100 nM, single wells, read-out: inhibition rate",100%
same,inhibition at 0.2 µM,"RS4:11 cells; Homo sapiens, RS4-11, RS4:11, 200 nM, single wells, read-out: inhibition rate",100%
same,IC50,"RS4:11 cells; Homo sapiens, RS4-11",0.5 ± 0.1 nM
same,raw luminescence reading,"RS4:11 cells; 0.012207 nM, single wells, listed as ABT199",473100 and 440900 and 421900 and 464800 and 440500 and 404600
same,raw luminescence reading,"RS4:11 cells; 0.0244141 nM, single wells, listed as ABT199",468000 and 467900 and 427500 and 463600 and 451400 and 411500
same,raw luminescence reading,"RS4:11 cells; 0.0488281 nM, single wells, listed as ABT199",464300 and 463300 and 420200 and 448100 and 441000 and 405800
same,raw luminescence reading,"RS4:11 cells; 0.0976562 nM, single wells, listed as ABT199",446400 and 453400 and 406000 and 426100 and 420400 and 382600
same,raw luminescence reading,"RS4:11 cells; 0.195312 nM, single wells, listed as ABT199",418900 and 420900 and 384800 and 390800 and 394900 and 350200
same,raw luminescence reading,"RS4:11 cells; 0.390625 nM, single wells, listed as ABT199",317400 and 330800 and 297800 and 297300 and 296900 and 256100
same,inhibition rate,"RS4:11 cells; 0.390625 nM, single wells, listed as ABT199, 0.000390625 µM",24% and 32% and 41%
same,raw luminescence reading,"RS4:11 cells; 0.78125 nM, single wells, listed as ABT199",141300 and 149000 and 125700 and 134100 and 136000 and 117900
same,inhibition rate,"RS4:11 cells; 0.78125 nM, single wells, listed as ABT199, 0.00078125 µM",66% and 71% and 69% and 73%
same,raw luminescence reading,"RS4:11 cells; 1.5625 nM, single wells, listed as ABT199",23070 and 25650 and 25890 and 29130 and 27640 and 29210
same,inhibition rate,"RS4:11 cells; 1.5625 nM, single wells, listed as ABT199, 0.0015625 µM",94% and 93%
same,raw luminescence reading,"RS4:11 cells; 3.125 nM, single wells, listed as ABT199",9731 and 10360 and 11130 and 12480 and 11890 and 12850
same,inhibition rate,"RS4:11 cells; 3.125 nM, single wells, listed as ABT199, 0.003125 µM",97%
same,raw luminescence reading,"RS4:11 cells; 6.25 nM, single wells, listed as ABT199",514.1 and 705.1 and 803.0 and 736.8 and 691.7 and 772.7
same,raw luminescence reading,"RS4:11 cells; 12.5 nM, single wells, listed as ABT199",355.5 and 246.5 and 256.3 and 381.9 and 264.2 and 272.2
same,raw luminescence reading,"RS4:11 cells; 25 nM, single wells, listed as ABT199",183.0 and 151.3 and 145.9 and 222.1 and 185.6 and 197.7
same,raw luminescence reading,"RS4:11 cells; 50 nM, single wells, listed as ABT199",222.3 and 165.6 and 152.2 and 216.6 and 173.6 and 195.6
